# Where a name gives a salt, the structure may show the parent alone. Read-outs that look alike come from different tables or passages of the source.
# Columns and labels:
# [1] = at therapeutic doses
# [2] = tested on: sensitized cebus monkeys; conditions: for Number of Monkeys with Dyskinetic Reactions/Number Tested: observed eight hours; for duration of reactions / intensity of reactions: typical reactions
# Description: The compound of Formula II, clozapine, thioridazine or haloperidol were each orally administered to sensitized cebus monkeys. They were then observed in their home cages continuously for eight hours and occurrences of dyskinetic reactions noted.
# [3] = tested on: sensitized cebus monkeys; conditions: background statement; cited from earlier work
# [4] = tested on: schizophrenic patients; conditions: background statement; cited from earlier work
# [5] = tested on: rat striatal dihydroxyphenylacetic acid (DOPAC); conditions: rat striatum, HPLC
# Description: (§1) A number of tests are recognized as showing antidopaminergic activity of a compound and/or as being predictive of antipsychotic activity in mammals. For these tests a compound of formula II in the form of a salt (for example, as described in Example 2) was used. All dosages in the tables are expressed as free base.
# (§2) Among the various pharmacological effects of antipsychotics, their action as dopamine antagonists in the brain has been extensively investigated. Enhancement of dopamine metabolism (dihydroxyphenylacetic acid and homovanillic acid (DOPAC and HVA)) by antipsychotic agents has been attributed to a blockade of dopamine receptors [A. Carlson and M. Lindquist, Acta. Pharmac. Tox., (1963) 20: 140]. The effects of a compound of the invention on DOPAC and HVA levels in the rat striatum were measured by HPLC using electrochemcial detection according to the method of Saller and Salama [J. Chromatography, (1984) 309: 287].
# [6] = tested on: rat striatal homovanillic acid (HVA); conditions: rat striatum, HPLC
# Description: as §1, §2
# [7] = tested on: squirrel monkeys; conditions: for Number of Monkeys Scoring 75% (Or Less) Avoidance Responses/Number Tested: vehicle 0/20
# Description: as §1
# The conditioned avoidance test has been described by Herz, A., Int. Rev. Neurobiol., (1960) 2: 229-277. In this test, a warning stimulus is presented for five seconds. The monkeys are trained to press a lever to turn off the warning stimulus thereby avoiding the delivery of electric shocks at 1/sec for 10 seconds that would begin at the end of the warning stimulus. If there is no response during the warning stimulus (no avoidance response) and the shocks begin, a response during the shocks stops the shocks. Trials of this type are repeated every minute for six hours. […] A compound of the present invention Formula II (HCl salt) was administered orally and the conditioned avoidance test was administered. The vehicle used was that defined in Example 5.
# [8] = tested on: amphetamine-induced hyperactivity; conditions: for Activity Score (0-2 Hr) (Mean Number of Crossings of Center Line of Alley): vehicle 148
# Method: A number of tests are recognized as showing antidopaminergic activity of a compound and/or as being predictive of antipsychotic activity in mammals. For these tests a compound of formula II in the form of a salt (for example, as described in Example 2) was used. All dosages in the tables are expressed as free base. This test has been described by Swerdlow and Koob [Pharmacol. Biochem. and Behav., 23: 303 (1985)]. Rats that are administered amphetamine at a moderate dose become hyperactivity. The hyperactivity can last for several hours, and can be measured in various ways, for example, by counting the number of times the rat walks from one end of a long alley to the other end. […] The hyperactivity of […]-treated rats can be antagonized (prevented) by pretreatment with dopamine-blocking agents. […] The compound of the present invention as the HCl salt or the vehicle (vehicle is defined in Example 5) were administered orally to 20 rats and […] injected intraperitoneally. Activity (walking back and forth in a long alley) was recorded for two hours.
# [9] = tested on: apomorphine-induced climbing; conditions: for Mean Climb Score: 13-14 min after apomorphine HCl 1.25 mg/kg s.c., vehicle 24
# Method: as §1
# This test has been described by Ther and Schramm [Arch int. Pharmacodyn., 138: 302 (1962); Peuch, Simon and Boissier, Eur. J. Pharm., 50: 291 (1978)]. Mice that are administered an appropriate dose of apomorphine (a dopamine agonist) will climb the walls of a cage or other suitable structure and remain at or near the top for 20-30 minutes. Untreated mice on the other hand will occasionally climb up and then climb down. […] The antagonism of apomorphine-induced climbing in mice is therefore an indication of the potential dopamine blocking activity of the agent. Since dopamine blocking agents are typically antipsychotic agents, the test is considered to be evidence for potential antipsychotic activity of the agent. The vehicle itself [hydroxypropylmethylcellulose (HPMC) 0.5% w/v, polyoxyethylene (20) sorbitan monooleate (Tween 80) .1% w/v, and distilled water] or the vehicle with the test compound of the present invention was administered orally to twenty mice in graded doses. After 30 minutes, apomorphine HCl was administered subcutaneously at 1.25 mg/kg and the mice were placed in cages containing 28 horizontal rungs, upon which the mice could climb. Thirteen minutes later they were scored for climbing. The climbing score was the mean of the highest and lowest rungs on which the mouse climbed during a one-minute time period from 13 ° 14 minutes after apomorphine.
# [10] = 20 mg/kg p.o., one of two reacting monkeys
smiles,measurement,setting,value
"OCCOCCN1CCN(C2=Nc3ccccc3Sc3ccccc32)CC1 [Formula II, 11-[4-[2-(2-Hydroxyethoxy)ethyl]-1-piperazinyl]-dibenzo[b,f][1,4]thiazepine]",overt toxicity,[1],No overt toxicity
"O=C(CCCN1CCC(O)(c2ccc(Cl)cc2)CC1)c1ccc(F)cc1 [Haloperidol, reference compound]",Number of Monkeys with Dyskinetic Reactions/Number Tested,[2]; 1.0 mg/kg p.o.,13/13
same,duration of reactions,[2]; oral,several
same,intensity of reactions,[2]; oral,moderate or high intensity
"CSc1ccc2c(c1)N(CCC1CCCCN1C)c1ccccc1S2 (stereo not drawn) [Thioridazine, reference compound]",Number of Monkeys with Dyskinetic Reactions/Number Tested,[2]; 10 mg/kg p.o.,11/13
same,duration of reactions,[2]; oral,several
same,intensity of reactions,[2]; oral,moderate or high intensity
"CN1CCN(C2=Nc3cc(Cl)ccc3Nc3ccccc32)CC1 [Clozapine, reference compound]",dyskinetic reaction in sensitized cebus monkeys,[3],does not produce a dyskinetic reaction
same,Number of Monkeys with Dyskinetic Reactions/Number Tested,[2]; 10 mg/kg p.o.,0/1
same,Number of Monkeys with Dyskinetic Reactions/Number Tested,[2]; 20 mg/kg p.o.,0/13
same,Number of Monkeys with Dyskinetic Reactions/Number Tested,[2]; 40 mg/kg p.o.,0/11
same,Number of Monkeys with Dyskinetic Reactions/Number Tested,[2]; 60 mg/kg p.o.,0/5
same,tardive dyskinesia reported,[4],no tardive dyskinesia reported
"OCCOCCN1CCN(C2=Nc3ccccc3Sc3ccccc32)CC1 [Formula II (HCl salt), 11-[4-[2-(2-Hydroxyethoxy)ethyl]-1-piperaziny]dibenzo [b,f][1,4]thiazepine, hydrochloride salt]",Number of Monkeys with Dyskinetic Reactions/Number Tested,[2]; 2.5 mg/kg p.o.,0/13
same,Number of Monkeys with Dyskinetic Reactions/Number Tested,[2]; 5 mg/kg p.o.,1/13
same,duration of reaction,[2]; 10 mg/kg,about twenty
same,intensity of reaction,[2]; 10 mg/kg,weak
same,Number of Monkeys with Dyskinetic Reactions/Number Tested,[2]; 10 mg/kg p.o.,1/13
same,Number of Monkeys with Dyskinetic Reactions/Number Tested,"[2]; 20 mg/kg p.o., hydrochloride salt",2/13
same,Number of Monkeys with Dyskinetic Reactions/Number Tested,"[2]; 20 mg/kg p.o., listed as compound of the present invention, hydrochloride salt",two of thirteen
same,duration of reaction,[2]; [10],about five
same,intensity of reaction,[2]; [10],extremely weak
same,Number of Monkeys with Dyskinetic Reactions/Number Tested,[2]; 40 mg/kg p.o.,0/4
same,dyskinetic and dystonic reactions,"[2]; compared to haloperidol or thioridazine, oral",markedly fewer dyskinetic and dystonic reactions
same,intensity of the reactions,"[2]; compared to thioridazine or haloperidol, oral",less than that of thioridazine or haloperidol
same,% Control DOPAC,[5]; 10 mg/kg i.p.,145 % Control
same,% Control DOPAC,[5]; 20 mg/kg i.p.,220 % Control
same,% Control DOPAC,[5]; 40 mg/kg i.p.,300 % Control
same,% Control HVA,[6]; 10 mg/kg i.p.,140 % Control
same,% Control HVA,[6]; 20 mg/kg i.p.,210 % Control
same,% Control HVA,[6]; 40 mg/kg i.p.,260 % Control
same,Number of Monkeys Scoring 75% (Or Less) Avoidance Responses/Number Tested,[7]; 5 mg/kg p.o.,0/4
same,Number of Monkeys Scoring 75% (Or Less) Avoidance Responses/Number Tested,[7]; 10 mg/kg p.o.,15/20
same,Number of Monkeys Scoring 75% (Or Less) Avoidance Responses/Number Tested,[7]; 20 mg/kg p.o.,19/20
same,reduction of avoidance responses,"[7]; result in words, oral",marked reduction of avoidance responses
same,Activity Score (0-2 Hr) (Mean Number of Crossings of Center Line of Alley),"[8]; 10 mg/kg p.o., p < .05",118.3 Crossings
same,Activity Score (0-2 Hr) (Mean Number of Crossings of Center Line of Alley),"[8]; 20 mg/kg p.o., p < .0005",92.4 Crossings
same,Activity Score (0-2 Hr) (Mean Number of Crossings of Center Line of Alley),"[8]; 40 mg/kg p.o., p < .0005",64.3 Crossings
same,Activity Score (0-2 Hr) (Mean Number of Crossings of Center Line of Alley),"[8]; 80 mg/kg p.o., p < .0005",39.8 Crossings
same,antagonism of amphetamine-induced hyperactivity,[8]; result in words,antagonized the hyperactivity
same,Mean Climb Score,[9]; 10 mg/kg i.p. (head; text: orally),24
same,Mean Climb Score,[9]; 20 mg/kg i.p. (head; text: orally),15
same,Mean Climb Score,[9]; 40 mg/kg i.p. (head; text: orally),2
same,Mean Climb Score,[9]; 80 mg/kg i.p. (head; text: orally),0
same,antagonism of apomorphine-induced climbing,[9]; result in words,antagonized the climbing
